Assay results: the supplement of paper PMC4862054

Key:
Test in all cases: normalised response (% of control), CellTiter-Glo; higher = more viable cells (100 = DMSO, 0 = benzethonium chloride kill control)
Details in all cases: incubation time: 72 h
BT-474 = tested on: BT-474
Method in brief: (§1)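 Plates were normalised with 0.1 % DMSO as 100 and a positive kill control as 0. Breast cancer cell lines in 20 µl suspension had been seeded into 384-well plates with compound at 5 concentrations in 10-fold steps over a compound-specific 10,000-fold range, incubated 72 h, and read for CellTox Green fluorescence (485/520 nm) followed by CellTiter-Glo luminescence. Each value is the normalised signal at a single concentration.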

CAL-148 = tested on: CAL-148
Method in brief: as §1

MDA-MB-453 = tested on: MDA-MB-453
Method in brief: as §1

MDA-MB-436 = tested on: MDA-MB-436
Method in brief: as §1

CAL-51 = tested on: CAL-51
Method in brief: as §1

BT-549 = tested on: BT-549
Method in brief: as §1

HCC1937 = tested on: HCC1937
Method in brief: as §1

MDA-MB-468 = tested on: MDA-MB-468
Method in brief: as §1

CAL-85-1 = tested on: CAL-85-1
Method in brief: as §1

MFM-223 = tested on: MFM-223
Method in brief: as §1

CAL-120 = tested on: CAL-120
Method in brief: as §1

MDA-MB-231 = tested on: MDA-MB-231
Method in brief: as §1

DU-4475 = tested on: DU-4475
Method in brief: as §1

MCF-10A = tested on: MCF-10A
Method in brief: as §1

HCC1143 = tested on: HCC1143
Method in brief: as §1

Hs578T = tested on: Hs578T
Method in brief: as §1

SK-BR-3 = tested on: SK-BR-3
Method in brief: as §1

HDQ-P1 = tested on: HDQ-P1
Method in brief: as §1

| Structure (SMILES) | normalised response (BT-474) | normalised response (CAL-148) | normalised response (MDA-MB-453) | normalised response (MDA-MB-436) | normalised response (CAL-51) | normalised response (BT-549) | normalised response (HCC1937) | normalised response (MDA-MB-468) | normalised response (CAL-85-1) | normalised response (MFM-223) | normalised response (CAL-120) | normalised response (MDA-MB-231) | normalised response (DU-4475) | normalised response (MCF-10A) | normalised response (HCC1143) | normalised response (Hs578T) | normalised response (SK-BR-3) | normalised response (HDQ-P1) |
| --- | --- | --- | --- | --- | --- | --- | --- | --- | --- | --- | --- | --- | --- | --- | --- | --- | --- | --- |
| COc1ccc(S(=O)(=O)Nc2cccnc2Nc2ccc(O)cc2)cc1 [ABT-751] (1000 nM) | 63.8% | 87.2% | 54.8% | 38.7% | 104% | 48.9% | 77.8% | 36.9% | 34.7% | 69.3% | 60.9% | 63.6% | 81.6% | 84.4% | 67.3% | 45.6% | 36.1% | 71.1% |
| CC(C)(C)NC(=O)[C@H]1CC[C@H]2[C@@H]3CC[C@H]4NC(=O)C=C[C@]4(C)[C@H]3CC[C@]12C [Finasteride] (1000 nM) | 98.9% | 91.8% | 103% | 108% | 94.6% | 90.7% | 99.6% | 104% | 95% | 103% | 106% | 95.2% | 96.8% | 104% | 96.6% | 96.6% | 102% | 105% |
| CC(O)(CS(=O)(=O)c1ccc(F)cc1)C(=O)Nc1ccc(C#N)c(C(F)(F)F)c1 (configuration not stated) [Bicalutamide] (1000 nM) | 110% | 102% | 95% | 107% | 101% | 97.6% | 100% | 110% | 107% | 102% | 108% | 112% | 99% | 110% | 101% | 95.6% | 109% | 108% |
| CO[C@@]12[C@H](COC(N)=O)C3=C(C(=O)C(C)=C(N)C3=O)N1C[C@@H]1N[C@@H]12 [Mitomycin C] (1000 nM) | 90.2% | 90.9% | 97.9% | 88.3% | 60.2% | 65.7% | 95.2% | 86% | 95.6% | 90.1% | 94.1% | 97.4% | 96.9% | 93% | 99.4% | 102% | 96.7% | 97% |
| O=C(CCCCCCC(=O)Nc1ccccc1)NO [Vorinostat] (1000 nM) | 89.4% | 90.6% | 61.2% | 89.6% | 72.2% | 100% | 85.2% | 69.4% | 93.7% | 91.6% | 85.9% | 85.4% | 86.5% | 104% | 90.2% | 95.8% | 89.5% | 85% |
| C/C(=C\c1csc(C)n1)[C@@H]1C[C@@H]2O[C@]2(C)CCC[C@H](C)[C@H](O)[C@@H](C)C(=O)C(C)(C)[C@@H](O)CC(=O)N1 [Ixabepilone] (100 nM) | 103% | 97.8% | 109% | 101% | 30.6% | 23.6% | 102% | 29.1% | 99.5% | 105% | 95.8% | 96.9% | 102% | 110% | 97.5% | 104% | 106% | 100% |
| CC(=O)[C@]1(O)Cc2c(O)c3c(c(O)c2[C@@H](O[C@H]2C[C@H](N)[C@H](O)[C@H](C)O2)C1)C(=O)c1ccccc1C3=O [Idarubicin] (100 nM) | 92.3% | 63.5% | 140% | 65.7% | 42.6% | 62.6% | 98% | 64.5% | 91% | 117% | 99.7% | 94.7% | 83.1% | 98.2% | 102% | 82.5% | 83.4% | 103% |
| C=CCn1c(=O)c2cnc(Nc3ccc(N4CCN(C)CC4)cc3)nc2n1-c1cccc(C(C)(C)O)n1 [MK1775] (1000 nM) | 33.3% | 12.2% | 50.1% | 30.8% | 18.5% | 21.2% | 39.6% | 43.4% | 18.7% | 41.2% | 47.3% | 23.6% | 65.6% | 47.6% | 43.2% | 30% | 14.4% | 35.9% |
| Cc1cn(-c2cc(NC(=O)c3ccc(C)c(Nc4nccc(-c5cccnc5)n4)c3)cc(C(F)(F)F)c2)cn1 [Nilotinib] (1000 nM) | 92.9% | 84.4% | 105% | 103% | 70.9% | 109% | 96.5% | 93% | 102% | 97.3% | 100% | 96.5% | 97.7% | 107% | 94% | 105% | 97.5% | 104% |
